Laboratory results from patent US7139665B2, “Computational method for designing enzymes for incorporation of non natural amino acids into proteins” (California Institute of Technology, priority 2002, dated 2006).
“Also recorded” adds a separate entry of the source.

Key:
ePheRS** = target: T1, ePheRS** (Escherichia coli, UniProt P08312, A294G/T251G); format: cell-based
T1 construct: expressed in transfected cells; host or cells: E. coli AF-IQ[pQE-FS**]

ePheRS* [1] = target: T2, ePheRS* (Escherichia coli, UniProt P08312, A294G); details: over-expression of ePheRS*; earlier work; cited from earlier work
T2 construct: expressed in transfected cells; host or cells: E. coli AF-IQ[pQE-FS*]
T2 sequence (P08312 whole entry A294G): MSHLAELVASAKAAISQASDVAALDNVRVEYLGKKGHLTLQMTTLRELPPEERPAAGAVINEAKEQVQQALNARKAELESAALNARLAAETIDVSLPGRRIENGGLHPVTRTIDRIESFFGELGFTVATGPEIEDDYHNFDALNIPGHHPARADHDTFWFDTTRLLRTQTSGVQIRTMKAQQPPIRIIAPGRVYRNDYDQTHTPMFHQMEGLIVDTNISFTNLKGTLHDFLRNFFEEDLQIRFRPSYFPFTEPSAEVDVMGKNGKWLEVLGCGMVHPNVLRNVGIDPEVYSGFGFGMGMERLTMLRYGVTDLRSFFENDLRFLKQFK
T2 sequence (P07395 whole entry, further chain): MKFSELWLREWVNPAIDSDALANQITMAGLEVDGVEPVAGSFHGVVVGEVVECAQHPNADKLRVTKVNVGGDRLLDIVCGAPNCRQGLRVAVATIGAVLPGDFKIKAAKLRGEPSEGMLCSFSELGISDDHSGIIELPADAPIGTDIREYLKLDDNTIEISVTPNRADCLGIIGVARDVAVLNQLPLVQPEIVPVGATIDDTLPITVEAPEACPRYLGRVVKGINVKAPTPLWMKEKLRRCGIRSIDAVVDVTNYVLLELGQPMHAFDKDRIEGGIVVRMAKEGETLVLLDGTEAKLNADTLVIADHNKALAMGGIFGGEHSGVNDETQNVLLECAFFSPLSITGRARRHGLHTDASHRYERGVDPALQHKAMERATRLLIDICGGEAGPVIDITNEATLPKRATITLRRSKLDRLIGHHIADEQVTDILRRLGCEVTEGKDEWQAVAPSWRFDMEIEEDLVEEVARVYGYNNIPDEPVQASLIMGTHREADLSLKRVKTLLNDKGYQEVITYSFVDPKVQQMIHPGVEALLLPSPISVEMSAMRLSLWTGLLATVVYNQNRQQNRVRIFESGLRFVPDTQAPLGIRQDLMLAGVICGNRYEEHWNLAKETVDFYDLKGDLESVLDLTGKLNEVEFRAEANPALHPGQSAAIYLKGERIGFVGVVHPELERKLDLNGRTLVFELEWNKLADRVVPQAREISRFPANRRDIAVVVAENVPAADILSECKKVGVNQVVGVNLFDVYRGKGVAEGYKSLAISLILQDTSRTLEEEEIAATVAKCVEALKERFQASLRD

ePheRS = target: T3, ePheRS (Escherichia coli, UniProt P08312); test: In vivo translational activity: mDHFR expression in Phe-auxotrophic E. coli AF-IQ[pQE15] (no mutant synthetase); format: cell-based; details: phenylalanine-free minimal media supplemented with 2 (250 mg/L), 4 hr post-induction, versus background (-phe)
T3 construct: endogenous in cells; host or cells: E. coli AF-IQ[pQE15]; (Phe-auxotrophic BL21(DE3) derivative)
T3 sequence (P07395 whole entry): as the sequence (P07395 whole entry, further chain) above
T3 sequence (P08312 whole entry): as the sequence (P08312 whole entry A294G) above, with G294A counted along it

ePheRS* [2] = target: T2, ePheRS*; test: In vivo translational activity: mDHFR expression in E. coli AF-IQ[pQE-FS*] over-expressing ePheRS* (Ala294Gly); format: cell-based; details: ePheRS* over-expressed, Phe-depleted media supplemented with 2 (250 mg/L), versus background (-phe)

T1 sequence (P08312 whole entry T251G/A294G): as the sequence (P08312 whole entry A294G) above, with T251G counted along it
T1 sequence (P07395 whole entry, further chain): as the sequence (P07395 whole entry, further chain) above

With `N[C@@H](Cc1c[nH]c2ccccc12)C(=O)O` [tryptophan] the “misincorporation into protein by ePheRS**” value (ePheRS**; phe starvation conditions in the absence of 2) was “misincorporation”.

In the case of `C#Cc1ccc(C[C@H](N)C(=O)O)cc1` [p-ethynylphenylalanine], the “incorporation into recombinant proteins in E. coli hosts” value (from here on “incorporation into recombinant proteins”) (ePheRS* [1]) is listed as “efficient incorporation”.

For `CC(=O)c1ccc(C[C@H](N)C(=O)O)cc1` [compound 2, p-acetylphenylalanine], the “protein (mDHFR) expression, SDS-PAGE of whole cell lysates” value (from here on “protein (mDHFR) expression, SDS-PAGE”) (ePheRS) was “neither AF-IQ[pQE15] nor AF-IQ[pQE-FS*] exhibits protein expression above background”, the “protein (mDHFR) expression, SDS-PAGE” value (ePheRS* [2]) was “did not produce substantial yields of protein; also recorded: neither AF-IQ[pQE15] nor AF-IQ[pQE-FS*] exhibits protein expression above background” and the “protein (mDHFR) expression, SDS-PAGE” value (ePheRS**; AF-IQ[pQE-FS**], phenylalanine-free minimal media supplemented with 2 (250 mg/L)) was “high levels of mDHFR expression”. For the same compound, the “replacement of 1 by 2 in mDHFR” value (ePheRS**; from MALDI-TOF mass increase of mDHFR-2, mDHFR contains 9 Phe residues) was “approximately 80%” and the “misincorporation of canonical amino acids” value (ePheRS**; media supplemented with 2) was “no detectable misincorporation”.

For `N#Cc1ccc(C[C@H](N)C(=O)O)cc1` [p-cyanophenylalanine], the “incorporation into recombinant proteins” value (ePheRS* [1]) is listed as “efficient incorporation”.

In the case of `[N-]=[N+]=Nc1ccc(C[C@H](N)C(=O)O)cc1` [p-azidophenylalanine], the “incorporation into recombinant proteins” value (ePheRS* [1]) is given as “efficient incorporation”.

For `N[C@@H](Cc1ccc(I)cc1)C(=O)O` [p-iodophenylalanine], the “incorporation into recombinant proteins” value (ePheRS* [1]) is listed as “efficient incorporation”.

In the case of `N[C@@H](Cc1ccc(Br)cc1)C(=O)O` [p-bromophenylalanine], the “incorporation into recombinant proteins” value (ePheRS* [1]) is listed as “efficient incorporation”.

For `N[C@@H](Cc1ccc(O)cc1)C(=O)O` [tyrosine], the misincorporation into protein (ePheRS**; under any conditions) was “not observed misincorporation”.
